In PubChem BioAssay AID2060360 (Molecular Pharmacology Branch, DTP, NCI, 2025):
Where “and” joins values, the source holds several entries; their conditions need not be identical. Identical values can stand only once. One block for each compound: values may come before it.

Test system: 282377-053-R-J1-PDC tumor spheroids, viability
Test: Anticancer human tumor 282377-053-R-J1-PDC patient-derived colon adenocarcinoma cell line growth inhibition [TAK]
Details: spheroids with HUVEC and MSC; for viability, T/C: stronger effect = lower value
In short: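 Tumor cells were grown as spheroids with HUVEC and hMSC (60:25:15) and treated with targeted agents combined with TAK-243 or ipatasertib. Drugs were tested in half-log steps down from near the clinical Cmax, or from 10 microM where Cmax was unknown.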

[1] = curve of first compound, second compound 0.3 µM
[2] = curve of first compound, second compound 0.949 µM
[3] = curve of first compound, second compound 3 µM
[4] = curve of first compound, second compound 9.49 µM
[5] = curve of first compound, second compound 30 µM
[6] = second compound 0.3 µM, first compound 0.000316 µM
[7] = second compound 0.3 µM, first compound 0.001 µM
[8] = second compound 0.3 µM, first compound 0.00316 µM
[9] = second compound 0.3 µM, first compound 0.01 µM
[10] = second compound 0.3 µM, first compound 0.0316 µM
[11] = second compound 0.3 µM, first compound 0.1 µM
[12] = second compound 0.949 µM, first compound 0.000316 µM
[13] = second compound 0.949 µM, first compound 0.001 µM
[14] = second compound 0.949 µM, first compound 0.00316 µM
[15] = second compound 0.949 µM, first compound 0.01 µM
[16] = second compound 0.949 µM, first compound 0.0316 µM
[17] = second compound 0.949 µM, first compound 0.1 µM
[18] = second compound 3 µM, first compound 0.000316 µM
[19] = second compound 3 µM, first compound 0.001 µM
[20] = second compound 3 µM, first compound 0.00316 µM
[21] = second compound 3 µM, first compound 0.01 µM
[22] = second compound 3 µM, first compound 0.0316 µM
[23] = second compound 3 µM, first compound 0.1 µM
[24] = second compound 9.49 µM, first compound 0.000316 µM
[25] = second compound 9.49 µM, first compound 0.001 µM
[26] = second compound 9.49 µM, first compound 0.00316 µM
[27] = second compound 9.49 µM, first compound 0.01 µM
[28] = second compound 9.49 µM, first compound 0.0316 µM
[29] = second compound 9.49 µM, first compound 0.1 µM
[30] = second compound 30 µM, first compound 0.000316 µM
[31] = second compound 30 µM, first compound 0.001 µM
[32] = second compound 30 µM, first compound 0.00316 µM
[33] = second compound 30 µM, first compound 0.01 µM
[34] = second compound 30 µM, first compound 0.0316 µM
[35] = second compound 30 µM, first compound 0.1 µM
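Note: spheroids exposed to drugs for seven days before readout.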

SMILES: CC(C)CC(NC(=O)CNC(=O)c1cc(Cl)ccc1Cl)B1OC(=O)CC(CC(=O)O)(C(=O)O)O1 (stereo not drawn) + CC(C)NCC(C(=O)N1CCN(c2ncnc3c2C(C)CC3O)CC1)c1ccc(Cl)cc1
IC50 [1]: 53.8 nM
IC50 [2]: 47.9 nM
IC50 [3]: 43.8 nM
IC50 [4]: 39.3 nM
IC50 [5]: 36.3 nM
viability, T/C [6]: 99.5%
viability, T/C [7]: 93.9%
viability, T/C [8]: 94.3%
viability, T/C [9]: 92.7%
viability, T/C [10]: 89.7%
viability, T/C [11]: 3.57%
viability, T/C [12]: 100%
viability, T/C [13]: 88.3%
viability, T/C [14]: 87.1%
viability, T/C [15]: 94.5%
viability, T/C [16]: 77.1%
viability, T/C [17]: 1.73%
viability, T/C [18]: 82.4%
viability, T/C [19]: 87.8%
viability, T/C [20]: 84.2%
viability, T/C [21]: 84.5%
viability, T/C [22]: 69.2%
viability, T/C [23]: 1.39%
viability, T/C [24]: 81.3%
viability, T/C [25]: 79.3%
viability, T/C [26]: 81.7%
viability, T/C [27]: 77.5%
viability, T/C [28]: 61.5%
viability, T/C [29]: 1.53%
viability, T/C [30]: 70.2%
viability, T/C [31]: 74.6%
viability, T/C [32]: 67.7%
viability, T/C [33]: 66.8%
viability, T/C [34]: 57.3%
viability, T/C [35]: 0.99%

IC50 (curve of compound): 867 nM and 611 nM
SMILES: Cn1cnc2c(F)c(Nc3ccc(Br)cc3Cl)c(C(=O)NOCCO)cc21
viability, T/C (compound 0.00949 µM): 89.8% and 85.2%
viability, T/C (compound 0.03 µM): 88.6% and 82.3%
viability, T/C (compound 0.0949 µM): 79% and 71.6%
viability, T/C (compound 0.3 µM): 76.2% and 72.7%
viability, T/C (compound 0.949 µM): 46.9% and 36.5%
viability, T/C (compound 3 µM): 21.5% and 17.7%

IC50 (curve of compound): > 1000 nM and 555 nM
SMILES: COc1c(OCCCN2CCOCC2)ccc2c3n(c(=NC(=O)c4cnc(N)nc4)nc12)CCN3
viability, T/C (compound 0.00316 µM): 101%
viability, T/C (compound 0.01 µM): 100% and 94.6%
viability, T/C (compound 0.0316 µM): 98.1% and 97.2%
viability, T/C (compound 0.1 µM): 98% and 87.7%
viability, T/C (compound 0.316 µM): 97.2% and 80.9%
viability, T/C (compound 1 µM): 56.2% and 19.3%

IC50 (curve of compound): 3.89 nM and 5.29 nM
SMILES: CC(=O)Nc1cccc(-n2c(=O)n(C3CC3)c(=O)c3c(Nc4ccc(I)cc4F)n(C)c(=O)c(C)c32)c1
viability, T/C (compound 94.9 pM): 98.3% and 96.1%
viability, T/C (compound 0.0003 µM): 86.1% and 84.3%
viability, T/C (compound 0.000949 µM): 70.9% and 75.1%
viability, T/C (compound 0.003 µM): 60.2% and 62.8%
viability, T/C (compound 0.00949 µM): 29.5% and 37.9%
viability, T/C (compound 0.03 µM): 13.8% and 13.7%

IC50 (curve of compound): > 100 nM
SMILES: COC1CC2CCC(C)C(O)(O2)C(=O)C(=O)N2CCCCC2C(=O)OC(C(C)CC2CCC(OCCO)C(OC)C2)CC(=O)C(C)C=C(C)C(O)C(OC)C(=O)C(C)CC(C)C=CC=CC=C1C (stereo not drawn)
viability, T/C (compound 0.000316 µM): 101% and 99.3%
viability, T/C (compound 0.001 µM): 101% and 97.3%
viability, T/C (compound 0.00316 µM): 97.6% and 98.6%
viability, T/C (compound 0.01 µM): 102% and 103%
viability, T/C (compound 0.0316 µM): 94.2% and 95.4%
viability, T/C (compound 0.1 µM): 101% and 97.8%

IC50 (compound alone, run of 03/19/2020): > 30000 nM
SMILES: CC(C)NCC(C(=O)N1CCN(c2ncnc3c2C(C)CC3O)CC1)c1ccc(Cl)cc1 (stereo not drawn)
viability, T/C (compound 0.3 µM): 100% [middle of 10 runs]
viability, T/C (compound 0.949 µM): 92% [middle of 10 runs]
viability, T/C (compound 3 µM): 84.9% [middle of 10 runs]
viability, T/C (compound 9.49 µM): 81.9% [middle of 10 runs]
viability, T/C (compound 30 µM): 69.3% [middle of 10 runs]

SMILES: COC1CC2CCC(C)C(O)(O2)C(=O)C(=O)N2CCCCC2C(=O)OC(C(C)CC2CCC(OCCO)C(OC)C2)CC(=O)C(C)C=C(C)C(O)C(OC)C(=O)C(C)CC(C)C=CC=CC=C1C (stereo not drawn) + CC(C)NCC(C(=O)N1CCN(c2ncnc3c2C(C)CC3O)CC1)c1ccc(Cl)cc1
IC50 [1]: > 100 nM
IC50 [2]: > 100 nM
IC50 [3]: > 100 nM
IC50 [4]: > 100 nM
IC50 [5]: 8.56 nM
viability, T/C [6]: 93.1%
viability, T/C [7]: 91.7%
viability, T/C [8]: 94%
viability, T/C [9]: 95%
viability, T/C [10]: 93.7%
viability, T/C [11]: 91.4%
viability, T/C [12]: 93.3%
viability, T/C [13]: 87%
viability, T/C [14]: 91.8%
viability, T/C [15]: 91.8%
viability, T/C [16]: 87.7%
viability, T/C [17]: 89.4%
viability, T/C [18]: 82.2%
viability, T/C [19]: 87.6%
viability, T/C [20]: 80.9%
viability, T/C [21]: 82.2%
viability, T/C [22]: 82.2%
viability, T/C [23]: 79.1%
viability, T/C [24]: 81.2%
viability, T/C [25]: 77.8%
viability, T/C [26]: 73.5%
viability, T/C [27]: 74.9%
viability, T/C [28]: 65.8%
viability, T/C [29]: 60.4%
viability, T/C [30]: 61.6%
viability, T/C [31]: 64.3%
viability, T/C [32]: 55.8%
viability, T/C [33]: 48.3%
viability, T/C [34]: 39.9%
viability, T/C [35]: 31%

SMILES: CC(C)n1nc(-c2ccc3oc(N)nc3c2)c2c(N)ncnc21 + CC(C)NCC(C(=O)N1CCN(c2ncnc3c2C(C)CC3O)CC1)c1ccc(Cl)cc1
IC50 [1]: > 100 nM
IC50 [2]: 66.6 nM
IC50 [3]: 30.3 nM
IC50 [4]: 14.7 nM
IC50 [5]: 4.07 nM
viability, T/C [6]: 106%
viability, T/C [7]: 103%
viability, T/C [8]: 95.7%
viability, T/C [9]: 88%
viability, T/C [10]: 69.7%
viability, T/C [11]: 56.1%
viability, T/C [12]: 92%
viability, T/C [13]: 93%
viability, T/C [14]: 86.3%
viability, T/C [15]: 89.9%
viability, T/C [16]: 71.7%
viability, T/C [17]: 38%
viability, T/C [18]: 83.5%
viability, T/C [19]: 85.9%
viability, T/C [20]: 79%
viability, T/C [21]: 71.5%
viability, T/C [22]: 49.1%
viability, T/C [23]: 22.7%
viability, T/C [24]: 81.4%
viability, T/C [25]: 77.3%
viability, T/C [26]: 74.7%
viability, T/C [27]: 60.5%
viability, T/C [28]: 30%
viability, T/C [29]: 14.8%
viability, T/C [30]: 68.8%
viability, T/C [31]: 70.4%
viability, T/C [32]: 56.5%
viability, T/C [33]: 25.9%
viability, T/C [34]: 15.9%
viability, T/C [35]: 8.24%

IC50 (curve of compound): > 100 nM
SMILES: CC(C)n1nc(-c2ccc3oc(N)nc3c2)c2c(N)ncnc21
viability, T/C (compound 0.000316 µM): 99.5% and 93.2%
viability, T/C (compound 0.001 µM): 99% and 92.6%
viability, T/C (compound 0.00316 µM): 99.7% and 91.3%
viability, T/C (compound 0.01 µM): 89.3%
viability, T/C (compound 0.0316 µM): 83% and 83.3%
viability, T/C (compound 0.1 µM): 49.6% and 59.1%

IC50 (curve of compound): 55.8 nM and 57.5 nM
SMILES: CC(C)CC(NC(=O)CNC(=O)c1cc(Cl)ccc1Cl)B1OC(=O)CC(CC(=O)O)(C(=O)O)O1 (stereo not drawn)
viability, T/C (compound 0.000316 µM): 97.6% and 92.8%
viability, T/C (compound 0.001 µM): 95.9% and 104%
viability, T/C (compound 0.00316 µM): 101% and 95.3%
viability, T/C (compound 0.01 µM): 97.9% and 101%
viability, T/C (compound 0.0316 µM): 93.3% and 95%
viability, T/C (compound 0.1 µM): 5.66% and 8.2%
